# Measured values: BindingDB's records for doi:10.1016/0024-3205(83)90740-3 (University of Toronto, 1983)
# pKi: −log10 of the molar value. Values joined by “and” are separate entries in the source; they are usually repeats but may differ in a detail not shown here. Equal values may be shown once.
# Target: 5-hydroxytryptamine receptor 2A (Rattus norvegicus, UniProt P14842)
# Sequence (P14842 whole entry): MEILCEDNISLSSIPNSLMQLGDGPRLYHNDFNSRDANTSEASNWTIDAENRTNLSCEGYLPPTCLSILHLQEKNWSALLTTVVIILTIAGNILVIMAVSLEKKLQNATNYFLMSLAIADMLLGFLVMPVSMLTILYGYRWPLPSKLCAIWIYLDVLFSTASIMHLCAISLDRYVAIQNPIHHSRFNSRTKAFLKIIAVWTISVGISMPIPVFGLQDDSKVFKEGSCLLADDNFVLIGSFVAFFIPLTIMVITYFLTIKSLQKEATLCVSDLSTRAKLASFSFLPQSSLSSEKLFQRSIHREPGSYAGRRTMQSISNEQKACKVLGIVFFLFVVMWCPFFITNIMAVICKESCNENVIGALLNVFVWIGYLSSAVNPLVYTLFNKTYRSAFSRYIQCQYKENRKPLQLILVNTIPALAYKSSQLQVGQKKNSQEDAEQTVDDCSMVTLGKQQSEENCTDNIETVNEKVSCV
row,Structure (SMILES),pKi
1,c1ccc2nc(N3CCNCC3)ccc2c1 [2-Piperazin-1-yl-quinoline (Quipazine)],6.24 and 6.65 and 7.00
2,NCCc1c[nH]c2ccccc12 [1H-indole-3-ethanamine],5.53 and 5.77 and 6.27
3,CN(C)CCCSc1ccccc1NC(=O)/C=C/c1ccccc1 [CINANSERIN],8.00 and 8.26 and 8.35
